In US12605351B2, “Method for producing a composition comprising a 3-O-p-coumaroyl ester of tormentic acid from a plant cell culture, applications thereof as antiparasitic agent for the treatment of trypanosomiasis” (LUXEMBOURG INSTITUTE OF SCIENCE AND TECHNOLOGY, priority 2019, dated 2026):
Where two headings read alike, the source gives them in different places.

Tests used:
[1] = test system: Human normal fibroblast cell line (WI-38); experiment: cells; assay type: cell-based; conditions: for cytotoxicity compared with parent oleanolic acid: in words
Description: The cytotoxicity of tested compounds was evaluated in parallel on a Human normal fibroblast cell line (WI-38) cultivated in a humidified atmosphere with 5% CO2 at 37° C. Human normal fibroblast cell line (WI-38) was cultivated in DMEM medium (Life Technologies) containing 4 mM L-glutamine, 1 mM sodium pyruvate supplemented with 10% fetal bovine serum (Sigma) and penicillin-streptomycin (100 UI/mL).
(§1) Suramine (a commercial anti-trypanosomal drug) and camptothecin were used as positive controls. Stock solutions of compounds to be tested were prepared at a concentration of 10 mg/mL in DMSO. The solutions were further diluted in medium (described in 1.1) to give 0.1 mg/mL stock solutions. Extracts and compounds were tested in eight serial three-fold dilutions (final concentration range: 50-0.02 mg/L) in 96-well microliter plates. All tests were performed at least in duplicate.

[2] = test system: Trypanosoma brucei brucei bloodstream forms (strain 427); experiment: In vitro antitrypanosomal activity on Tbb BSF; assay type: cell-based; conditions: for antitrypanosomal activity compared with parent ursolic/oleanolic acid: in words
Description: Antiparasitic activities were evaluated in vitro on Trypanosoma brucei brucei bloodstream forms (strain 427) (Tbb BSF). Tbb BSF were cultured in vitro at 37° C. with 5% CO2 in HMI9 medium containing 10% heat-inactivated fetal bovine serum, […] ([…]) and L-cysteine ([…]).
as §1, with “In vitro tests were performed as previously described by Hoet S. et al. (Planta Med., 2004, 70, 407-413, doi:10.1055/s-2004-818967). Suramine” for “Suramine”

[3] = cytotoxicity, WI-38 human fibroblasts, Table 3, read-out: WI38 (IC50 μM)
[4] = cytotoxicity, WI-38 human fibroblasts, Table 3, read-out: WI38 (IC50 μg/mL)
[5] = Table 4, same methods as example 3, read-out: Antitrypanosomal (Tbb) IC50 (μM, Mean ± Sd)
[6] = Table 4, same methods as example 3, read-out: Cytotoxicity (WI38) IC50 (μM, Mean ± Sd)

Row | IC50 [1] | IC50 [2, 5] | SMILES | IC50 [1, 6] | other results
1 |  |  | CC[C@@]1(O)C(=O)OCc2c1cc1n(c2=O)Cc2cc3ccccc3nc2-1 [Camptothecin] |  | IC50 [1, 3]: 0.12 ± 0.03 µM; IC50 [1, 4]: 0.04 ± 0.01 µg/mL
2 |  |  | C[C@H]1[C@H](C)CC[C@]2(C(=O)O)CC[C@]3(C)C(=CC[C@@H]4[C@@]5(C)C[C@@H](O)[C@H](O)C(C)(C)[C@@H]5CC[C@]43C)[C@H]12 [Corosolic Acid] |  | IC50 [1, 3]: 19.8 ± 5.22 µM; IC50 [1, 4]: 9.34 ± 2.47 µg/mL; IC50 ([2]; Trypanosoma brucei, Tbb bloodstream forms strain 427, Table 3, read-out: Tbb (IC50 μM)): 7.3 ± 0.59 µM; IC50 ([2]; Trypanosoma brucei, Tbb bloodstream forms strain 427, Table 3, read-out: Tbb (IC50 μg/mL)): 3.45 ± 0.23 µg/mL; SI (Selectivity Index) ([2]; cytotoxicity in WI38 compared to Tbb): 2.7
3 | 142 ± 3.45 µM | 2.22 ± 0.66 µM | C[C@H]1[C@H](C)CC[C@]2(C(=O)O)CC[C@]3(C)C(=CC[C@@H]4[C@@]5(C)CC[C@H](OC(=O)CCc6ccccc6)C(C)(C)C5CC[C@]43C)[C@H]12 (some centres unmarked) [Derivative (II-1), 3-O-hydrocinnamic ursolic acid] |  | 
4 |  | 68.2 ± 2.15 µM | C[C@H]1[C@H](C)CC[C@]2(C(=O)O)CC[C@]3(C)C(=CC[C@@H]4[C@@]5(C)CC[C@H](OC(=O)/C=C/c6ccccc6)C(C)(C)C5CC[C@]43C)[C@H]12 (some centres unmarked) [Derivative (II-2), 3-O-cinnamic ursolic acid] |  | 
5 | > 165 µM | 2.45 ± 0.3 µM | C[C@H]1[C@H](C)CC[C@]2(C(=O)O)CC[C@]3(C)C(=CC[C@@H]4[C@@]5(C)CC[C@H](OC(=O)CCc6ccc(F)cc6)C(C)(C)C5CC[C@]43C)[C@H]12 (some centres unmarked) [Derivative (II-3), 3-O-parafluorophenylpropionic ursolic acid] |  | 
6 | > 165 µM | 2.67 ± 0.83 µM | C[C@H]1[C@H](C)CC[C@]2(C(=O)O)CC[C@]3(C)C(=CC[C@@H]4[C@@]5(C)CC[C@H](OC(=O)CCc6cccc(F)c6)C(C)(C)C5CC[C@]43C)[C@H]12 (some centres unmarked) [Derivative (II-4), 3-O-metafluorophenylpropionic ursolic acid] |  | 
7 | > 132 µM | 1.66 ± 0.38 µM | C[C@H]1[C@H](C)CC[C@]2(C(=O)O)CC[C@]3(C)C(=CC[C@@H]4[C@@]5(C)CC[C@H](OC(=O)CCc6ccccc6F)C(C)(C)C5CC[C@]43C)[C@H]12 (some centres unmarked) [Derivative (II-5), 3-O-orthofluorophenylpropionic ursolic acid] |  | 
8 |  | 2.59 ± 0.87 µM | CC1(C)CC[C@]2(C(=O)O)CC[C@]3(C)C(=CC[C@@H]4[C@@]5(C)CC[C@H](OC(=O)CCc6ccccc6)C(C)(C)C5CC[C@]43C)[C@@H]2C1 (some centres unmarked) [Derivative (II-6), 3-O-hydrocinnamic oleanolic acid] | 23.5 ± 6.56 µM | cytotoxicity compared with parent oleanolic acid [1]: significantly increased; antitrypanosomal activity compared with parent ursolic/oleanolic acid [2]: significantly increased activity
9 |  | 6.31 ± 0.96 µM | CC1(C)CC[C@]2(C(=O)O)CC[C@]3(C)C(=CC[C@@H]4[C@@]5(C)CC[C@H](OC(=O)/C=C/c6ccccc6)C(C)(C)C5CC[C@]43C)[C@@H]2C1 (some centres unmarked) [Derivative (II-7), 3-O-cinnamic oleanolic acid] | 22.3 ± 1.88 µM | 
10 |  | 2.88 ± 1.11 µM | CC1(C)CC[C@]2(C(=O)O)CC[C@]3(C)C(=CC[C@@H]4[C@@]5(C)CC[C@H](OC(=O)CCc6ccc(F)cc6)C(C)(C)C5CC[C@]43C)[C@@H]2C1 (some centres unmarked) [Derivative (II-8), 3-O-parafluorophenylpropionic oleanolic acid] | 16.3 ± 3.26 µM | cytotoxicity compared with parent oleanolic acid [1]: significantly increased; antitrypanosomal activity compared with parent ursolic/oleanolic acid [2]: significantly increased activity
11 |  | 1.72 ± 0.07 µM | CC1(C)CC[C@]2(C(=O)O)CC[C@]3(C)C(=CC[C@@H]4[C@@]5(C)CC[C@H](OC(=O)CCc6cccc(F)c6)C(C)(C)C5CC[C@]43C)[C@@H]2C1 (some centres unmarked) [Derivative (II-9), 3-O-metafluorophenylpropionic oleanolic acid] | 20.7 ± 2.25 µM | cytotoxicity compared with parent oleanolic acid [1]: significantly increased; antitrypanosomal activity compared with parent ursolic/oleanolic acid [2]: significantly increased activity
12 |  | 4.63 ± 0.28 µM | CC1(C)CC[C@]2(C(=O)O)CC[C@]3(C)C(=CC[C@@H]4[C@@]5(C)CC[C@H](OC(=O)CCc6ccccc6F)C(C)(C)C5CC[C@]43C)[C@@H]2C1 (some centres unmarked) [Derivative (II-10), 3-O-orthofluorophenylpropionic oleanolic acid] | 18.6 ± 4.47 µM | 
